Data published in ChEMBL document CHEMBL5096221, “Discovery of a Highly Potent and Orally Bioavailable STAT3 Dual Phosphorylation Inhibitor for Pancreatic Cancer Treatment” (J Med Chem, 2022).
The source made the active and inactive calls. No cut-off for these calls is given here.

How the values were obtained:
[1] = Inhibition of ATP production in human BXPC-3 cells incubated for 20 to 24 hrs by ATP assay kit method; format: functional, cell-based
[2] = molecular target: T1, Signal transducer and activator of transcription 3 (Homo sapiens, UniProt P40763); test: Inhibition of STAT3 in human BXPC-3 cells assessed as inhibition of STAT3 phosphorylation at Ser 727 at 10 nM incubated for 22 to 24 hrs by western blot analysis; format: cell-based; conditions: time 22-24 hrs
T1 sequence (P40763 whole entry): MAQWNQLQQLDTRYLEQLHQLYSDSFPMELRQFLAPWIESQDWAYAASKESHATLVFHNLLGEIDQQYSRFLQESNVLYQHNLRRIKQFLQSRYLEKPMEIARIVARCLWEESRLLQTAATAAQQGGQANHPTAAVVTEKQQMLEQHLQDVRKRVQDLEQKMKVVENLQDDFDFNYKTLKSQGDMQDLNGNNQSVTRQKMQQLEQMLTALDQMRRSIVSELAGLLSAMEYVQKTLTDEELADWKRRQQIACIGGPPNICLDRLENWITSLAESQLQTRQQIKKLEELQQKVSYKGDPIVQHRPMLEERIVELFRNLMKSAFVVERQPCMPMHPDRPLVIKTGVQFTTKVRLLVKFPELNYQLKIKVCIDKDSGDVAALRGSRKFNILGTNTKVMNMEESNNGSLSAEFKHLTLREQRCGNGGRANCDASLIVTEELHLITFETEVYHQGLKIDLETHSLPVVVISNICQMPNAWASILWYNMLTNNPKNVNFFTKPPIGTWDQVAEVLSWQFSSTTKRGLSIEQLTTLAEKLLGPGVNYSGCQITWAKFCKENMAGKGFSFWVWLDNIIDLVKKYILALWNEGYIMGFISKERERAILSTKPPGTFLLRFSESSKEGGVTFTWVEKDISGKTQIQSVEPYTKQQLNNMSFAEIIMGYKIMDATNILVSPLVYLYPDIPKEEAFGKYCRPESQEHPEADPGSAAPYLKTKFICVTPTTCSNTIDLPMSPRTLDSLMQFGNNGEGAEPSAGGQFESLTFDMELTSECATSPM

[3] = Toxicity in BALB/c mouse xenografted with human BXPC-3 cells assessed as effect on kidney at 30 mg/kg,po administrated once daily for 8 weeks by H and E staining based microscopic analysis; format: organism-based; conditions: in vivo, 1344 h
[4] = MRT (0 to last) in BALB/c mouse at 1 mg/kg,iv measured upto 24 hrs by LC-MS/MS analysis; format: ADME, organism-based; conditions: BALB/c, in vivo
[5] = molecular target: T1, Signal transducer and activator of transcription 3; test: Inhibition of STAT3 in human Capan-2 cells assessed as reduction of Cyclin D1 expression at 1 to 30 nM incubated for 22 to 24 hrs by western blot analysis; format: cell-based; conditions: dose 1-30 nM, time 22-24 hrs, DDE = dose-dependent effect

In the case of COc1ccc(-c2noc(-c3cnc(Oc4ccc5cc(C(=O)N6CCN(Cc7ccc(OCC(F)(F)F)cc7)CC6)n(C)c5c4)cn3)n2)cc1, the IC50 [1] is reported as 4.2 nM, the inhibition [2] is reported as “Active” and the Activity [3] is reported as “Non-Toxic”. The MRT last at 24 h [4] was 8.1 h and the inhibition [5] was “Dde”.
